Measured values from the NIST ThermoML archive (doi:10.1016/j.jct.2008.05.005).

Assay: xn = mol fraction of the nth substance listed
Settings: Liquid, Vibrating tube method

CCCCn1cc[n+](C)c1.F[B-](F)(F)F [1-butyl-3-methylimidazolium tetrafluoroborate] + CO
mass density [kg/m3]
Settings	373.15 K	398.15 K
870 kPa, x1 = 0.0087	–	702.45
980 kPa, x1 = 0.7501	–	1114.32
990 kPa, x1 = 0.4988	–	1069.4
1020 kPa, x1 = 0.2626	–	985.77
1030 kPa, x1 = 0.9102	–	1132.67
1250 kPa, x1 = 0.0433	–	772.27
2310 kPa, x1 = 0.1302	–	891.44
5010 kPa, x1 = 0.0087	–	709.59
5060 kPa, x1 = 0.0433	–	778.08
5060 kPa, x1 = 0.2626	–	989.1
5080 kPa, x1 = 0.4988	–	1072.6
5120 kPa, x1 = 0.1302	–	894.51
5310 kPa, x1 = 0.7501	–	1117.54
5410 kPa, x1 = 0.9102	–	1135.7
10030 kPa, x1 = 0.0087	–	717.77
10030 kPa, x1 = 0.1302	–	899.7
10120 kPa, x1 = 0.2626	–	994.1
10250 kPa, x1 = 0.9102	–	1138.98
10410 kPa, x1 = 0.0433	–	785.75
10410 kPa, x1 = 0.7501	–	1121.25
10470 kPa, x1 = 0.4988	–	1077.23
14950 kPa, x1 = 0.0087	–	725.27
15020 kPa, x1 = 0.1302	–	904.75
15070 kPa, x1 = 0.0433	–	791.97
15210 kPa, x1 = 0.4988	–	1081.15
15360 kPa, x1 = 0.9102	–	1142.35
15450 kPa, x1 = 0.2626	–	999.14
15960 kPa, x1 = 0.7501	–	1125.17
20030 kPa, x1 = 0.4988	–	1085
20060 kPa, x1 = 0.0087	–	732.52
20060 kPa, x1 = 0.2626	–	1003.34
20100 kPa, x1 = 0.1302	–	909.67
20310 kPa, x1 = 0.0433	–	798.45
20340 kPa, x1 = 0.7501	–	1128.18
20470 kPa, x1 = 0.9102	–	1145.63
24980 kPa, x1 = 0.0087	–	738.99
25010 kPa, x1 = 0.9102	–	1148.46
25060 kPa, x1 = 0.1302	–	914.25
25080 kPa, x1 = 0.0433	–	803.88
25320 kPa, x1 = 0.4988	–	1089.05
25620 kPa, x1 = 0.2626	–	1008.18
25720 kPa, x1 = 0.7501	–	1131.78
29970 kPa, x1 = 0.1302	–	918.57
30080 kPa, x1 = 0.7501	–	1134.62
30090 kPa, x1 = 0.4988	–	1092.57
30120 kPa, x1 = 0.0087	–	745.21
30200 kPa, x1 = 0.0433	–	809.19
30550 kPa, x1 = 0.0433	830.7	–
30740 kPa, x1 = 0.2626	–	1012.44
30780 kPa, x1 = 0.0087	768.4	–
30890 kPa, x1 = 0.9102	–	1152.03
34960 kPa, x1 = 0.0433	–	813.67
34970 kPa, x1 = 0.0433	834.46	–
35040 kPa, x1 = 0.4988	–	1096.06
35040 kPa, x1 = 0.9102	1169.67	–
35060 kPa, x1 = 0.1302	–	922.81
35210 kPa, x1 = 0.7501	1153.29	1137.87
35280 kPa, x1 = 0.9102	–	1154.61
35310 kPa, x1 = 0.0087	–	750.93
35560 kPa, x1 = 0.1302	941.4	–
35620 kPa, x1 = 0.2626	1033.9	1016.31
35640 kPa, x1 = 0.4988	1112.39	–
35780 kPa, x1 = 0.0087	773.25	–
39510 kPa, x1 = 0.0087	776.62	–
39740 kPa, x1 = 0.1302	–	926.51
39910 kPa, x1 = 0.0433	838.34	–
39920 kPa, x1 = 0.9102	–	1157.27
39940 kPa, x1 = 0.0433	–	817.88
39940 kPa, x1 = 0.2626	1036.83	–
39940 kPa, x1 = 0.7501	–	1140.77
39940 kPa, x1 = 0.9102	1172.26	–
39960 kPa, x1 = 0.4988	–	1099.38
39970 kPa, x1 = 0.0087	–	755.59
39970 kPa, x1 = 0.4988	1115.12	–
39980 kPa, x1 = 0.2626	–	1019.62
39980 kPa, x1 = 0.7501	1155.94	–
40050 kPa, x1 = 0.1302	944.67	–
